# Assay results from patent publication US20170051112A1, “RESIN COMPOSITION SUITABLE FOR PRINTING AND PRINTING METHOD UTILIZING THE SAME” (MONTANUNIVERSITÄT LEOBEN, priority 2014, published 2017).
# Assays:
# [1] = test system: L929 mice fibroblast cells; assay: Cytotoxicity (residual protein content of the cells); type: cell-based; settings: for Cytotoxicity, in words: L929 cells; for Concentration limit: toxicological concentration limit: reduction of protein content of L929 cells by more than 30% relative to negative control; for Concentration limit / EC50: incubation 48 h; for EC50: concentration at which 50% of the L929 cells are damaged
# Description: The cytotoxicity of various monomers was determined by a certified laboratory by means of L929 mice fibroblast cells. As a (toxic) positive control, Triton X 100 was added to L929 cells with a final concentration of 1% (v/v). As a (non-toxic) negative control, a cell culture medium was used.
# After completion of the incubation, the residual protein content of the cells was determined. A reduction of the protein content from L929 cells by more than 30%, relative to the negative control, was evaluated as cytotoxic (which corresponds to the toxicological concentration limit). From this, the half maximal effective concentration (EC50), at which 50% of the cells are damaged, can be calculated.
# [2] = Measurement of viscosity (cone-and-plate viscosimeter); type: physicochemical; settings: for Viscosity at 25° C.: constant shear rate 300 s^-1, 25° C.; for Viscosity, in words: 25° C.
# Description: For measuring the viscosity, an MC 200 cone-and-plate viscosimeter from Anton Paar GmbH (cone unit MK 22/50 mm, 10) was used. First, the shear rate was varied with a stepped slope and subsequently the viscosity was determined at a constant shear rate (300 s^−1) every 30 seconds. The measurement was carried out at 25° C.
# [3] = Maximum reaction speed by Photo Differential Scanning Calorimetry (Photo-DSC); settings: yne monomer with TMPMP and 5 wt.-% photoinitiator mixture (comparatives without thiol); 1 W/cm^2, 50° C., nitrogen
# Description: The maximum reaction speed of various monomers was evaluated by means of Photo Differential Scanning Calorimetry (Photo-DSC). 8 mg of the respective test mixtures consisting of yne monomer (as shown in the following table 1) and thiol monomer (trimethylpropane tri(3-mercaptopropionate), TMPMP) as well as 5 wt.-% of a photoinitiator mixture (2-hydroxy-2-methyl-1-phenyl propanone/diphenyl 2,4,6-trimethylbenzoyl phosphane oxide, 50 wt.-%/50 wt.-%) were provided. As comparative test mixtures, acrylate and methacrylate without thiol monomer, but together with 5 wt.-% of the same photoinitiator mixture were provided. The test mixtures were placed in a crucible of aluminium and irradiated with an Omnicure® lamp at an intensity of 1 W/cm^2 at 50° C. under a nitrogen gas atmosphere to thereby cure the test mixtures.
# The times (tmax) for reaching the maximum reaction enthalpy indicate the reactivity of the photo-reactive systems. FIG. 1 is a graphical illustration of the test results (tmax) further showing the chemical structural formulas of the tested alkyne monomers and comparative (meth)acryl monomers.
Molecule,"Cytotoxicity, in words [1]",Concentration limit [1],Viscosity at 25° C. [2],tmax (time for reaching the maximum reaction enthalpy) [3],EC50 ([1]; Mus musculus),"Viscosity, in words [2]",EC50 [1]
"C=CC(=O)OCCCCOC(=O)C=C [1,4-butanediol diacrylate, reference compound]",particularly cytotoxic,<160 µM,4.3 mPa*s,1.80 s,,,
"C#CCOCCCCOCC#C [1,4-butanediol dipropargyl ether]",excellently low cytotoxicity,>1600 µM,4.7 mPa*s,5.12 s,3000 µM,relatively low values,
"1,4-butanediol dipropargyl carbonate",,,,3.00 s,,,550 µM
"CCC#COCCCCOC#CCC [1,4-butanediol dibut-1-ynyl ether]",excellently low cytotoxicity,>1100 µM,6.1 mPa*s,2.22 s,2000 µM,relatively low values,
"CCC#COCCOC(COCC)OC#CCC (centres unmarked) [1,4-triethyleneglycol dibut-1-ynyl ether]",,,17.2 mPa*s,2.46 s,,,
"1,4-butanediol dibut-1-ynyl carbonate",,,,2.46 s,,,
"C=C(C)C(=O)OCCCCOC(=O)C(=C)C [1,4-butanediol dimethacrylate, reference compound]",particularly cytotoxic,<160 µM,4.6 mPa*s,6.72 s,,,
C#CCOC(=O)OCC(CC)(COC(=O)OCC#C)COC(=O)OCC#C [Trimethylolpropane tripropargyl carbonate],,,,1.92 s,,,
